# Results from US6815455B1, “Benzimidazole compounds and drugs containing the same” (Fuji Photo Film Co., Ltd., priority 1999, dated 2004).
# Read-outs that look alike come from different tables or passages of the source.
# Tested on: mouse peritoneal macrophages
# Assay: In vitro experiment using mouse peritoneal macrophages: suppression of foaming, cholesterol ester (CE) yield
# Type: cell-based
# Conditions: for inhibitory effect on macrophages (rate of cholesterol ester synthesis), in words: mouse peritoneal macrophages, 5 μM
# [1] = test compound 5 μM with liposomes, 16 hours, cholesterol ester yield relative to control without test compound = 100%, smaller value = more potent suppression
Compound,CE yield (%) [1] [%],CE yield (%),"inhibitory effect on macrophages (rate of cholesterol ester synthesis), in words"
2-(5-(4-morpholino))-5-chlorobenzimidazole [Compound 20],25,,
2-(5-(4-morpholino))-5-methylbenzimidazole [Compound 9],21,,
"CCCn1c(SCCCCCN2CCOCC2)nc2ccccc21 [Compound 6, 4-(5-(1-propylbenzimidazolyl-2-thio)pentyl)morpholine]",27,,
1-(5-(benzimidazoyl-2-thio)pentyl)piperidine [Compound 1],,22,
"O=C(CCN1CCCCC1)CSc1nc2ccccc2[nH]1 [Ref. 4, reference compound]",89,,completely inactive
"c1ccc2[nH]c(SCCOCCN3CCOCC3)nc2c1 [Compound 50, 4-(2-(2-benzimidazoyl-2-thio)ethoxy)ethylmorpholine]",4.6,,
"N#CC1(c2ccccc2)CCN(CCCCCOc2nc3ccccc3[nH]2)CC1 [Compound 55, 1-(5-(benzimidazoyl-2-oxy)pentyl)-4-cyano-4-phenyl-piperidine]",,21,
"COc1ccc2[nH]c(SCCN3CCNCC3)nc2c1 [Ref. 5, reference compound]",102,,completely inactive
"CC(C)Oc1cccc(OC(C)C)c1NC(=O)CN1CCN(CCCSc2nc3ccccc3[nH]2)CC1 [Ref. 1, reference compound]",95,,almost no inhibitory effect
"O=C(CCCCSc1nc2ccccc2[nH]1)N1CCCc2ccccc21 [Compound 33, 1-(5-(4-benzimidazolyl-2-thio)valeryl)-1,2,3,4-tetrahydro-quinoline]",18,,
"CC(C)c1cc(C(C)C)c(NC(=O)CN2CCN(CCSc3nc4ccccc4[nH]3)CC2)c(C(C)C)c1 [Ref. 2, reference compound]",98,,almost no inhibitory effect
2-(5-(4-morpholino))-5-methoxybenzimidazole [Compound 19],24,,
"CCCCCCN(CCCCCSc1nc2ccccc2[nH]1)C(=O)Nc1ccc(F)cc1F [Ref. 3, reference compound]",78,,almost no inhibitory effect
2-(6-(1-(4-cyano-4-phenyl)piperidino)heptyl)-1H-benzimidazole [Compound 57],,22,
"CCC(=O)n1c(SCCCCCN2CCOCC2)nc2ccccc21 [Compound 7, 4-(5-(1-propionylbenzimidazolyl-2-thio)pentyl)morpholine]",22,,
"1-(5-benzimidazolyl-2-thio)pentyl-1,2,3,4-tetrahydro-quinoline [Compound 34]",,21,
4-(5-(benzimidazolyl-2-thio)pentyl)morpholine [Compound 2],18,,
2-(6-(1-(4-hydroxy-4-phenyl)piperidino)heptyl)-1H-benzimidazole [Compound 58],,20,
